# From patent US20060069132A1, “Azolecarboxamide herbicides” (priority 2004, published 2006)
# Columns and labels:
# velvetleaf [1] = assay: Test A pre-/postemergence herbicide test; format: in vivo, Abutilon theophrasti
# Excerpt: (§1) Seeds of plant species selected from barnyardgrass (Echinochloa crus-galli (L.) Beauv.), downy bromegrass (Bromus tectorum L.), large crabgrass (Digitaria sanguinalis (L.) Scop.), giant foxtail (Setaria faberi Herrm.), morningglory (Ipomoea spp.), redroot pigweed (Amaranthus retroflexus L.) and velvetleaf (Abutilon theophrasti Medik.) were planted into a sandy loam soil and treated preemergence with a directed soil spray using test chemicals formulated in a non-phytotoxic solvent mixture which included a surfactant. At the same time plants selected from these species were also treated postemergence by spraying to runoff with test chemicals formulated.
# (§2) Plants ranged in height from 2 to 10 cm and were in the one- to two-leaf stage for the postemergence treatment. Treated plants and untreated controls were maintained in a greenhouse for approximately ten days, after which time all treated plants were compared to untreated controls and visually evaluated for injury. Plant response ratings, summarized in Table A, are based on a 0 to 100 scale where 0 is no effect and 100 is complete control. A dash (-) response means no test results.
# large crabgrass [2] = assay: Test A pre-/postemergence herbicide test; format: in vivo, Digitaria sanguinalis
# Excerpt: as §1, §2
# barnyardgrass [3] = assay: Test A pre-/postemergence herbicide test; format: in vivo, Echinochloa crus-galli
# Excerpt: as §1, §2
# redroot pigweed = assay: Test A pre-/postemergence herbicide test; format: in vivo, Amaranthus retroflexus
# Excerpt: as §1, §2
# morningglory [4] = assay: Test A pre-/postemergence herbicide test; format: in vivo, Ipomoea spp.
# Excerpt: as §1, §2
# giant foxtail [5] = assay: Test A pre-/postemergence herbicide test; format: in vivo, Setaria faberi
# Excerpt: as §1, §2
# large crabgrass [6] = assay: Test B pre-/postemergence herbicide test; format: in vivo, Digitaria sanguinalis; conditions: for Crabgrass, Large plant response rating: postemergence
# Excerpt: (§3) Seeds selected from barnyardgrass (Echinochloa crus-galli (L.) Beauv.), Surinam grass (Urochloa decumbens (Staph) R. D. Webster, previously named Brachiaria decumbens Stapf), cocklebur (Xanthium strumarium L.), corn (Zea mays L.), large crabgrass (Digitaria sanguinalis (L.) Scop.), giant foxtail (Setaria faberi Herim.), lambsquarters (Chenopodium album L.), morningglory (Ipomoea coccinea L.), pigweed (Amaranthus retroflexus L.), rice (Oryza sativa L.) and velvetleaf (Abutilon theophrasti Medik.) were planted and treated preemergence with test chemicals formulated in a non-phytotoxic solvent mixture which included a surfactant.
# (§4) At the same time, plants selected from these crop and weed species and also blackgrass (Alopecurus myosuroides Huds.), wheat (Triticum aestivum L.) and wild oat (Avena fatua L.) were treated with postemergence applications of test chemicals formulated in the same manner. Plants ranged in height from 2 to 18 cm (1- to 4-leaf stage) for postemergence treatments. Plant species in the flooded paddy test consisted of rice (Oryza sativa L.), small flower umbrella sedge (Cyperus difformis L.), ducksalad (Heteranthera limosa (Sw.) Willd.) and barnyardgrass (Echinochloa crus-galli (L.) Beauv.) grown to the 2-leaf stage for testing. Treated plants and controls were maintained in a greenhouse for 13 to 15 days, after which time all species were compared to controls and visually evaluated. Plant response ratings, summarized in Table B, are based on a scale of 0 to 100 where 0 is no effect and 100 is complete control. A dash (-) response means no test result.
# wheat = assay: Test B postemergence herbicide test; format: in vivo, Triticum aestivum; parameters: key to Wheat plant response rating: 0 = no effect, 100 = complete control
# Procedure: as §4
# morningglory [7] = assay: Test B pre-/postemergence herbicide test; format: in vivo, Ipomoea coccinea; conditions: for Morningglory plant response rating: scale 0 (no effect) to 100 (complete control)
# Excerpt: as §3, §4
# Surinam grass = assay: Test B pre-/postemergence herbicide test; format: in vivo, Urochloa decumbens; conditions: for Surinam Grass plant response rating: scale 0 (no effect) to 100 (complete control)
# Excerpt: as §3, §4
# corn = assay: Test B pre-/postemergence herbicide test; format: in vivo, Zea mays; conditions: for Corn plant response rating: postemergence
# Excerpt: as §3, §4
# giant foxtail [8] = assay: Test B pre-/postemergence herbicide test; format: in vivo, Setaria faberi; conditions: for Foxtail, Giant plant response rating: postemergence
# Excerpt: as §3, §4
# pigweed = assay: Test B pre-/postemergence herbicide test; format: in vivo, Amaranthus retroflexus; conditions: for Pigweed plant response rating: scale 0 (no effect) to 100 (complete control)
# Excerpt: as §3, §4
# barnyardgrass [9] = assay: Test B pre-/postemergence herbicide test; format: in vivo, Echinochloa crus-galli; conditions: for Barnyardgrass plant response rating: postemergence
# Excerpt: as §3, §4
# ducksalad = assay: Test B flooded paddy test; format: in vivo, Heteranthera limosa; conditions: 1000 g ai/ha, scale 0 to 100 (0 no effect, 100 complete control)
# Procedure: as §4
# wild oat = assay: Test B postemergence herbicide test; format: in vivo, Avena fatua; conditions: scale 0 (no effect) to 100 (complete control)
# Procedure: as §4
# cocklebur = assay: Test B pre-/postemergence herbicide test; format: in vivo, Xanthium strumarium; conditions: for Cocklebur plant response rating: postemergence
# Excerpt: as §3, §4
# velvetleaf [10] = assay: Test B pre-/postemergence herbicide test; format: in vivo, Abutilon theophrasti; conditions: for Velvetleaf plant response rating: scale 0 (no effect) to 100 (complete control)
# Excerpt: as §3, §4
# rice = assay: Test B flooded paddy test; format: in vivo, Oryza sativa; conditions: 1000 g ai/ha, scale 0 to 100 (0 no effect, 100 complete control)
# Procedure: as §4
# lambsquarters = assay: Test B pre-/postemergence herbicide test; format: in vivo, Chenopodium album; conditions: for Lambsquarters plant response rating: scale 0 (no effect) to 100 (complete control)
# Excerpt: as §3, §4
# blackgrass = assay: Test B postemergence herbicide test; format: in vivo, Alopecurus myosuroides; conditions: postemergence
# Procedure: as §4
# [11] = system: small flower umbrella sedge; assay: Test B flooded paddy test; format: in vivo, Cyperus difformis; conditions: 1000 g ai/ha, scale 0 to 100 (0 no effect, 100 complete control)
# Procedure: as §4
# barnyardgrass [12] = assay: Test B flooded paddy test; format: in vivo, Echinochloa crus-galli; conditions: 1000 g ai/ha, scale 0 to 100 (0 no effect, 100 complete control)
# Procedure: as §4
# [13] = Postemergence, 125 g ai/ha, 0 to 100 scale, 0 no effect, 100 complete control
# [14] = Postemergence, 500 g ai/ha, 0 to 100 scale, 0 no effect, 100 complete control
# [15] = preemergence, 125 g ai/ha, visual injury, 0 to 100 scale (0 no effect, 100 complete control)
# [16] = preemergence, 500 g ai/ha, visual injury, 0 to 100 scale (0 no effect, 100 complete control)
# [17] = 125 g ai/ha, 0 is no effect, 100 is complete control, preemergence
# [18] = 125 g ai/ha, visual rating, scale 0 (no effect) to 100 (complete control)
# [19] = 500 g ai/ha, scale 0 to 100, 0 is no effect, 100 is complete control
# [20] = 125 g ai/ha, visual rating, postemergence
structure (smiles),measurement,setting,value
CCNC(=O)c1ccc(F)c(NC(=O)c2nc(C(C)(C)C)nn2CC)c1 [Compound 447],Velvetleaf plant response rating,velvetleaf [1]; [13],10
same,Velvetleaf plant response rating,velvetleaf [1]; [14],30
same,Velvetleaf plant response rating,velvetleaf [1]; [15],0
same,Velvetleaf plant response rating,velvetleaf [1]; [16],0
same,"Crabgrass, Large plant response rating",large crabgrass [2]; [13],10
same,"Crabgrass, Large plant response rating",large crabgrass [2]; [14],25
same,"Crabgrass, Large plant response rating",large crabgrass [2]; [15],0
same,"Crabgrass, Large plant response rating",large crabgrass [2]; [16],35
same,Barnyardgrass plant response rating,barnyardgrass [3]; [13],25
same,Barnyardgrass plant response rating,barnyardgrass [3]; [14],70
same,Barnyardgrass plant response rating,barnyardgrass [3]; [15],20
same,Barnyardgrass plant response rating,barnyardgrass [3]; [16],60
same,Pigweed plant response rating,redroot pigweed; [13],40
same,Pigweed plant response rating,redroot pigweed; [14],50
same,Pigweed plant response rating,redroot pigweed; [15],10
same,Pigweed plant response rating,redroot pigweed; [16],50
same,Morningglory plant response rating,morningglory [4]; [13],5
same,Morningglory plant response rating,morningglory [4]; [14],10
same,Morningglory plant response rating,morningglory [4]; [15],0
same,Morningglory plant response rating,morningglory [4]; [16],0
same,"Foxtail, Giant plant response rating",giant foxtail [5]; [13],10
same,"Foxtail, Giant plant response rating",giant foxtail [5]; [14],40
same,"Foxtail, Giant plant response rating",giant foxtail [5]; [15],10
same,"Foxtail, Giant plant response rating",giant foxtail [5]; [16],45
C#CCNC(=O)c1ccc(F)c(NC(=O)c2nn(C(C)(C)C)nc2CC)c1 [Compound 389],"Plant response rating (0 to 100 scale), Crabgrass, Large",large crabgrass [6]; [17],0
same,"Crabgrass, Large plant response rating",large crabgrass [6]; [18],0
same,"Crabgrass, Large plant response rating",large crabgrass [6]; [19],10
same,Wheat plant response rating,"wheat; 125 g ai/ha, visual rating, scale 0 (no effect) to 100 (complete control), postemergence",0
same,Wheat plant response rating,"wheat; 500 g ai/ha, scale 0 to 100, 0 no effect, 100 complete control, preemergence",0
same,Wheat plant response rating,"wheat; Postemergence, 500 g ai/ha, scale 0 (no effect) to 100 (complete control)",0
same,"Plant response rating (0 to 100 scale), Morningglory",morningglory [7]; [17],0
same,Morningglory plant response rating,morningglory [7]; [20],0
same,Morningglory plant response rating,"morningglory [7]; Postemergence, 500 g ai/ha",0
same,"Plant response rating (0 to 100 scale), Surinam Grass",Surinam grass; [17],0
same,Surinam Grass plant response rating,Surinam grass; [20],0
same,Surinam Grass plant response rating,"Surinam grass; Postemergence, 500 g ai/ha",10
same,"Plant response rating (0 to 100 scale), Corn",corn; [17],0
same,Corn plant response rating,corn; [18],0
same,Corn plant response rating,corn; [19],0
same,"Plant response rating (0 to 100 scale), Foxtail, Giant",giant foxtail [8]; [17],0
same,"Foxtail, Giant plant response rating",giant foxtail [8]; [18],0
same,"Foxtail, Giant plant response rating",giant foxtail [8]; [19],10
same,"Plant response rating (0 to 100 scale), Pigweed",pigweed; [17],0
same,Pigweed plant response rating,pigweed; [20],20
same,Pigweed plant response rating,"pigweed; Postemergence, 500 g ai/ha",40
same,"Plant response rating (0 to 100 scale), Barnyardgrass",barnyardgrass [9]; [17],0
same,Barnyardgrass plant response rating,barnyardgrass [9]; [18],0
same,Barnyardgrass plant response rating,barnyardgrass [9]; [19],0
same,Ducksalad plant response rating,ducksalad,0
same,"Oat, Wild plant response rating",wild oat; [20],0
same,"Oat, Wild plant response rating","wild oat; Postemergence, 500 g ai/ha",0
same,"Plant response rating (0 to 100 scale), Cocklebur",cocklebur; [17],0
same,Cocklebur plant response rating,cocklebur; [18],0
same,Cocklebur plant response rating,cocklebur; [19],0
same,"Plant response rating (0 to 100 scale), Velvetleaf",velvetleaf [10]; [17],0
same,Velvetleaf plant response rating,velvetleaf [10]; [20],0
same,Velvetleaf plant response rating,"velvetleaf [10]; Postemergence, 500 g ai/ha",20
same,Rice plant response rating,rice,20
same,"Plant response rating (0 to 100 scale), Lambsquarters",lambsquarters; [17],0
same,Lambsquarters plant response rating,lambsquarters; [20],10
same,Lambsquarters plant response rating,"lambsquarters; Postemergence, 500 g ai/ha",30
same,Blackgrass plant response rating,blackgrass; [18],0
same,Blackgrass plant response rating,blackgrass; [19],10
same,"Sedge, Umbrella plant response rating",[11],30
same,Barnyardgrass plant response rating,barnyardgrass [12],0
